Two molecules from patent US9181575B2 (priority 2008, dated 2015) can be followed below.

Molecules are shown by their SMILES.

The test system of this test is Legionella pneumophila. The class given is cell-based. As to conditions: after THPS 15 mg/L, 60 min; 0.1% pyruvate and/or 1% glutamic acid in BCYE.

With `CC(=O)C(=O)O` [pyruvate], the “ratio of number of culturable Legionella on supplemented medium to standard medium (BCYE)” value was found to be 45.
In the case of `N[C@@H](CCC(=O)O)C(=O)O` [glutamic acid] it was 0.2.
